Several values for one entry are separate records, joined by “and”; a condition that tells them apart may be missing. Identical values can stand only once.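 Protocol summary: plate cells (96-well), add compound at 5 concentrations, incubate 48 h, interpolate endpoints linearly. Abbreviation: GI50, concentration required for 50% inhibition of growth. The concentration for full growth arrest is given as TGI.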
Columns and labels:
Experiment in all cases: inhibition of tumour cell growth, NCI panel, 48 h
[1] = tested on: SNB-19 CNS
[2] = tested on: MCF7 breast
[3] = tested on: OVCAR-8 ovarian
[4] = tested on: DU-145 prostate
[5] = tested on: SF-268 CNS
[6] = tested on: RXF 393 renal
[7] = tested on: TK-10 renal
[8] = tested on: COLO 205 colon
[9] = tested on: 786-0 renal
[10] = tested on: A549 NSCLC

SMILES	GI50 [1]	TGI [1]	GI50 [2]	TGI [2]	GI50 [3]	TGI [3]	GI50 [4]	TGI [4]	GI50 [5]	TGI [5]	GI50 [6]	TGI [6]	GI50 [7]	TGI [7]	GI50 [8]	TGI [8]	GI50 [9]	TGI [9]	GI50 [10]	TGI [10]
CC1(C)C2CCC13C(=O)C1OC3(C2)C2C(=O)c3c(O)ccc(O)c3C(=O)C12 (configuration not stated)	61.5 µM	> 100 µM	35 µM	> 100 µM	47.2 µM	> 93.9 µM	32.2 µM	96.5 µM	> 47.1 µM	> 100 µM	31.1 µM	> 56.9 µM	26.1 µM	69 µM	25.9 µM	> 61.5 µM	10.5 µM	24.7 µM	46.6 µM	> 100 µM
COC(=O)c1c2c(c(C)[n+]([O-])c1C)C(=O)C(NCc1ccc(F)c(F)c1)=CC2=O	–	–	1.48 µM	3.36 µM	1.96 µM	7.97 µM	2.66 µM	7.61 µM	2.31 µM	7.47 µM	2.15 µM	5.96 µM	–	–	0.673 µM	2.1 µM	3.17 µM	12.7 µM	2.1 µM	6.17 µM
Cc1cccc(N=C2c3cc([N+](=O)[O-])ccc3-c3c2cc([N+](=O)[O-])cc3[N+](=O)[O-])c1	14.3 µM	31.7 µM	6.27 µM	28.2 µM	5.88 µM	94.1 µM	3.24 µM	11 µM	6.33 µM	40.8 µM	2.28 µM	4.95 µM	12.9 µM	> 100 µM	3.34 µM	17.1 µM	2.52 µM	5.65 µM	12.3 µM	32.9 µM
NC(=O)Oc1cc(OC(N)=O)cc(N(CCCl)CCCl)c1	10.6 µM	> 100 µM	1.09 µM	47.4 µM	5.74 µM	67.6 µM	3.06 µM	51.2 µM	1.88 µM	29.4 µM	1.98 µM	5.4 µM	19.3 µM	55.9 µM	15.2 µM	38.6 µM	4.28 µM	22.8 µM	5.13 µM	69 µM
Nc1ccn([C@@H]2C=C(CO)[C@@H](O)[C@H]2O)c(=O)n1	–	500 µM and > 625 µM	–	–	–	67 µM and > 625 µM	0.05 µM	500 µM	–	500 µM and > 625 µM	–	201 µM and 44.8 µM	0.184 µM	431 µM	0.0295 µM	–	0.257 µM	500 µM	–	–
CCN(CC)CCOc1cc2c(C(=O)OC)c(C)oc2cc1C(C)=O	15.8 µM	32.2 µM	22.8 µM	45.2 µM	13.4 µM	30.3 µM	–	–	13.6 µM	32.6 µM	17.9 µM	41 µM	16.8 µM	31.4 µM	8.27 µM	26.6 µM	13.1 µM	25.9 µM	18.5 µM	38.4 µM
CCOC(=O)/C=C1\Nc2ccccc2-n2nnnc21	–	> 100 µM	–	–	–	> 100 µM	–	–	–	> 100 µM	–	> 100 µM	–	> 100 µM	–	> 100 µM	–	> 100 µM	–	> 100 µM
CC1C(=O)N(C)C2(CO)C(=O)O[C@H](C)C12O (some centres not stated)	–	> 100 µM	–	–	–	> 100 µM	–	–	–	> 100 µM	–	> 100 µM	–	> 100 µM	–	> 100 µM	–	> 100 µM	–	> 100 µM
CCC(=C(c1ccc(OCc2ccccc2)cc1)c1ccc(OCc2ccccc2)cc1)c1ccc(OC)cc1	–	> 100 µM	–	–	–	> 100 µM	–	–	–	> 100 µM	–	> 100 µM	–	> 100 µM	–	> 100 µM	–	> 100 µM	–	> 100 µM
O=C1c2ccccc2C(=O)c2nc(-c3ccccc3)c(-c3ccccc3)nc21	–	> 100 µM	–	–	–	> 100 µM	–	–	–	> 100 µM	–	> 100 µM	–	> 100 µM	–	> 100 µM	–	> 100 µM	–	> 84.2 µM
Cc1ccc2sc3c(NCCCNCCO)nc4ccccc4c3c(=O)c2c1	–	–	1.61 µM	3.17 µM	1.74 µM	3.61 µM	1.71 µM	3.15 µM	1.57 µM	3.2 µM	1.5 µM	2.88 µM	–	–	1.55 µM	3.19 µM	1.7 µM	3.23 µM	1.78 µM	3.63 µM
CNC1C(O)CC(OC2C/C=C(\C)C/C(C)=C/C=C/CCC(C)CNC(=O)/C=C/C=C/C2C)OC1C (configuration not stated)	–	8.31 µM	–	–	–	1.18 µM	–	2.79 µM	–	1.78 µM	–	2.43 µM	–	3.17 µM	–	0.679 µM	–	0.294 µM	–	–
Nc1nc(N)c(-c2ccc(Cl)cc2)c(CCC(=O)Nc2cccc(C(F)(F)F)c2)n1	–	> 100 µM	–	–	–	> 100 µM	–	–	–	> 100 µM	–	> 100 µM	–	> 100 µM	–	> 100 µM	–	> 100 µM	–	> 100 µM
CN=S(=O)(C[C@]1(O)CC2OC1C1OC(C)(C)OC21)c1ccccc1 (some centres not stated)	–	> 100 µM	–	–	–	> 100 µM	–	–	–	> 100 µM	–	> 100 µM	–	> 100 µM	–	> 100 µM	–	> 100 µM	–	> 100 µM
Cc1c(Cl)ccc2c1NC(=O)C2(O)C1Cc2ccccc2C1=O (configuration not stated)	–	> 100 µM	–	–	–	> 100 µM	–	–	–	> 100 µM	–	> 100 µM	–	> 100 µM	–	> 100 µM	–	> 100 µM	–	> 100 µM
Cc1cc(C)nc(SC2=C(Nc3cccc(Cl)c3)C(=O)N(Cc3ccccc3)C2=O)n1	> 170 µM	> 170 µM	> 170 µM	> 170 µM	> 170 µM	> 170 µM	> 170 µM	> 170 µM	> 170 µM	> 170 µM	–	–	> 170 µM	> 170 µM	> 170 µM	> 170 µM	> 170 µM	> 170 µM	> 170 µM	> 170 µM
COc1cc(-c2c(C)c(C)nc(OC)c2C#N)cc(OC)c1OC	–	> 100 µM	–	–	–	> 100 µM	–	–	–	> 100 µM	–	> 100 µM	–	> 100 µM	–	> 100 µM	–	> 100 µM	–	> 100 µM
O=C(CC1(O)C(=O)Nc2c(Cl)cc(Cl)cc21)c1ccc2ccccc2c1 (configuration not stated)	–	25.4 µM	–	–	–	26 µM	–	–	–	31.8 µM	–	20.9 µM	–	27.9 µM	–	21.6 µM	–	23.8 µM	–	18.2 µM
Cc1cc(C)n(-c2c(O)ccc(O)c2-n2nc(C)cc2C)n1	–	> 100 µM	–	–	–	> 100 µM	–	–	–	> 100 µM	–	> 100 µM	–	> 100 µM	–	> 100 µM	–	> 100 µM	–	> 100 µM

From PubChem BioAssay (NCI)
